The text below walks through data of patent US10934309B2, “Tricyclic quinone derivative” (Boston Biomedical, Inc., priority 2014, dated 2021).

As usually defined, the IC50 is the point on the concentration scale where inhibition reaches its midpoint.

Where only a bound is given, the exact number is not on record here.

What all share (format): cell-based, human
Assay [1] deals with FaDu cells. The assay is described as follows: Proliferation inhibition assay of cancer cells (Test Example 1), FaDu. The following applies: Homo sapiens, FaDu, 96 h, FaDu cells, cultured for 4 days, Cell Titer-Glo; read-out: IC50 (μM) FaDu; concentration for 50% inhibition of cell proliferation (Bulk IC50 value). As for the experimental part:
(§1) HCT-116 cells (derived from human colon adenocarcinoma), HT-29 cells (derived from human colon cancer), and FaDu cells (derived from human hypopharynx cancer) were obtained from American Type Culture Collection (ATCC). […] After cells were seeded at 300-600 cells/well onto black μClear-plate 384 well (Greiner bio-one Cat. No. 781091), a test substance was added such that the final concentration of DMSO is 0.1%, and cultured for 4 days. […] A test shown in Test example 1 was carried out for compounds obtained in the Examples.
(In general: ATP-based viability assays read luminescence as a measure of living cells.)

Assay [2] has as its system HCT-116 cells. The assay can be described thus: Inhibition assay of cancer cell sphere-forming ability (Test Example 2), HCT-116. The following applies: Homo sapiens, HCT-116, 96 h, HCT-116 cells, Ultra-Low Attachment plate, serum-free DMEM/F12 with B27, EGF, bFGF, insulin, 4 days, Cell Titer-Glo; read-out: IC50 (μM) HCT; concentration for 50% inhibition of cell proliferation (Sphere IC50 value). As for the experimental part: (§2) HCT-116 cells (derived from human colon adenocarcinoma), HT-29 cells (derived from human colon cancer), FaDu cells (derived from human hypopharynx cancer) were obtained from American Type Culture Collection (ATCC). […] HCT-116 cells, HT-29 cells, and FaDu cells were seeded onto 384 Well Black Clear Bottom Ultra-Low Attachment Microplate (Corning Cat. […] A test substance was added so that the final concentration of DMSO is 0.1%, and then cultured for 4 days. […] A test shown in Test example 2 was carried out for compounds obtained in the Examples.

In assay [3] the test system is HT-29 cells. The assay is described as follows: Inhibition assay of cancer cell sphere-forming ability (Test Example 2), HT-29. The following applies: Homo sapiens, HT-29, 96 h, HT-29 cells, Ultra-Low Attachment plate, serum-free DMEM/F12 with B27, EGF, bFGF, insulin, 4 days, Cell Titer-Glo; read-out: IC50 (μM) HT; concentration for 50% inhibition of cell proliferation (Sphere IC50 value). On the procedure: as §2

Assay [4] has as its system HCT-116 cells. The assay can be described thus: Proliferation inhibition assay of cancer cells (Test Example 1), HCT-116. The note with it: Homo sapiens, HCT-116, 96 h, HCT-116 cells, cultured for 4 days, Cell Titer-Glo; read-out: IC50 (μM) HCT; concentration for 50% inhibition of cell proliferation (Bulk IC50 value). On the procedure: as §1
Assay [5] concerns FaDu cells. The assay is described as follows: Inhibition assay of cancer cell sphere-forming ability (Test Example 2), FaDu. The following applies: Homo sapiens, FaDu, 96 h, FaDu cells, Ultra-Low Attachment plate, serum-free DMEM/F12 with B27, EGF, bFGF, insulin, 4 days, Cell Titer-Glo; read-out: IC50 (μM) FaDu; concentration for 50% inhibition of cell proliferation (Sphere IC50 value). As for the experimental part: as §2

The test system of assay [6] is HT-29 cells. The assay can be described thus: Proliferation inhibition assay of cancer cells (Test Example 1), HT-29. The following applies: Homo sapiens, HT-29, 96 h, HT-29 cells, cultured for 4 days, Cell Titer-Glo; read-out: IC50 (μM) HT; concentration for 50% inhibition of cell proliferation (Bulk IC50 value). As for the experimental part:
as §1

In the case of `CC(C)(C)OC(=O)NCc1cc2c(s1)C(=O)c1ncccc1C2=O` [Example 41, tert-butyl (4,9-dioxo-4,9-dihydrothieno[3,2-g]quinolin-2-yl)methylcarbamate], the half-inhibitory concentration (IC50) in the assay on FaDu cells [1] stood at 0.78 µM; with HCT-116 cells [2], 0.83 µM; in the assay with HT-29 cells [3], 3.82 µM; in the assay on HCT-116 cells [4] it was 0.7 µM; with FaDu cells [5] it was 0.46 µM; in the assay with HT-29 cells [6], 4.52 µM.
As for `CC(=O)c1cc2c(o1)C(=O)c1cccnc1C2=O` [Example 42, 2-acetylfuro[2,3-g]quinoline-4,9-dione], the IC50 with FaDu cells [1] came out at 0.47 µM; in the assay on HCT-116 cells [2], 0.31 µM; in the assay on HT-29 cells [3] it was 0.59 µM; in the assay on HCT-116 cells [4] it was 0.54 µM; with FaDu cells [5], 0.08 µM; in the assay with HT-29 cells [6], 0.72 µM.
With `CC(O)c1cc2c(o1)C(=O)c1cccnc1C2=O` (stereo not drawn) [Example 43, 2-(1-hydroxyethyl)furo[2,3-g]quinoline-4,9-dione], the IC50 with FaDu cells [1] worked out at 0.66 µM; in the assay on HCT-116 cells [2], 0.51 µM; with HT-29 cells [3] it was 0.6 µM; with HCT-116 cells [4], 0.62 µM; in the assay on FaDu cells [5], 0.33 µM; in the assay on HT-29 cells [6], 5.62 µM.
With `CC(=O)c1cc2c(o1)C(=O)c1ccncc1C2=O` [Example 44, 2-acetylfuro[2,3-g]isoquinoline-4,9-dione], the IC50 in the assay on FaDu cells [1] is 0.03 µM; in the assay on HCT-116 cells [2] it was 0.06 µM; in the assay on HT-29 cells [3], 0.08 µM; in the assay on HCT-116 cells [4], 0.06 µM; in the assay with FaDu cells [5], 0.04 µM; in the assay with HT-29 cells [6], 0.51 µM.
Consider `CC(O)c1cc2c(o1)C(=O)c1ccncc1C2=O` (stereo not drawn) [Example 45, 2-(1-hydroxyethyl)furo[2,3-g]isoquinoline-4,9-dione], for which the half-maximal inhibitory concentration (IC50) in the assay on FaDu cells [1] was 0.03 µM; in the assay on HCT-116 cells [2] it was 0.06 µM; in the assay on HT-29 cells [3], 0.08 µM; with HCT-116 cells [4] it was 0.06 µM; in the assay with FaDu cells [5] it was 0.03 µM; in the assay with HT-29 cells [6], 0.52 µM.
For `CC(=O)c1oc2c(c1C(=O)N1CCOCC1)C(=O)c1cnccc1C2=O` [Example 47, 2-acetyl-3-(morpholin-4-carbonyl)furo[2,3-g]isoquinoline-4,9-dione], the IC50 in the assay with FaDu cells [1] is 0.05 µM; in the assay with HCT-116 cells [2] it was 0.26 µM; with HT-29 cells [3] it was 0.17 µM; in the assay with HCT-116 cells [4], 0.36 µM; with FaDu cells [5], 0.05 µM; in the assay with HT-29 cells [6], 0.41 µM.
Take `CC(=O)c1cc2c(o1)C(=O)c1cnccc1C2=O` [Example 48, 2-acetylfuro[3,2-g]isoquinoline-4,9-dione]: the IC50 came to 0.06 µM in the assay on FaDu cells [1]; 0.07 µM in the assay with HCT-116 cells [2]; 0.55 µM with HT-29 cells [3]; 0.07 µM with HCT-116 cells [4]; 0.05 µM in the assay on FaDu cells [5]; 0.62 µM in the assay with HT-29 cells [6].
`CC(=O)c1cc2c(o1)C(=O)c1ncccc1C2=O` [Example 50, 2-acetylfuro[3,2-g]quinoline-4,9-dione]: the concentration for half-maximal inhibition (IC50) turned out to be 0.47 µM in the assay with FaDu cells [1]; 0.26 µM in the assay on HCT-116 cells [2]; 0.58 µM with HT-29 cells [3]; 0.47 µM with HCT-116 cells [4]; 0.17 µM in the assay with FaDu cells [5]; 0.59 µM with HT-29 cells [6].
For the compound `CC(O)c1cc2c(o1)C(=O)c1ncccc1C2=O` (stereo not drawn) [Example 51, 2-(1-hydroxyethyl)furo[3,2-g]quinoline-4,9-dione], the IC50 was 0.49 µM with FaDu cells [1]; 0.09 µM in the assay with HCT-116 cells [2]; 0.43 µM in the assay with HT-29 cells [3]; 0.39 µM with HCT-116 cells [4]; 0.08 µM with FaDu cells [5]; 0.84 µM in the assay on HT-29 cells [6].
Consider `CC(=O)c1cc2c(o1)C(=O)c1sccc1C2=O` [Example 52, 2-acetylthieno[3,2-f][1]benzofuran-4,8-dione], for which the IC50 with FaDu cells [1] turned out to be 0.43 µM; in the assay on HCT-116 cells [2], 0.05 µM; in the assay with HT-29 cells [3], 0.08 µM; in the assay on HCT-116 cells [4] it was 0.07 µM; in the assay on FaDu cells [5], 0.06 µM; in the assay on HT-29 cells [6], 0.64 µM.
Regarding `CC(O)c1cc2c(o1)C(=O)c1sccc1C2=O` (stereo not drawn) [Example 53, 2-(1-hydroxyethyl)thieno[3,2-f][1]benzofuran-4,8-dione], the 50% inhibitory concentration (IC50) with FaDu cells [1] amounted to 0.64 µM; in the assay on HCT-116 cells [2] it was 0.56 µM; in the assay on HT-29 cells [3] it was 0.59 µM; in the assay on HCT-116 cells [4], 0.55 µM; with FaDu cells [5] it was 0.45 µM; in the assay on HT-29 cells [6] it was 0.68 µM.
As to `CC(C)(O)c1cc2c(o1)C(=O)c1sccc1C2=O` [Example 54, 2-(2-hydroxypropan-2-yl)thieno[3,2-f][1]benzofuran-4,8-dione], the IC50 in the assay on FaDu cells [1] turned out to be 0.67 µM; with HCT-116 cells [2], 0.6 µM; in the assay on HT-29 cells [3], 0.77 µM; in the assay with HCT-116 cells [4], 0.61 µM; with FaDu cells [5] it was 0.59 µM; in the assay with HT-29 cells [6], 2.47 µM.
As for `CC(=O)c1cc2c(o1)C(=O)c1ccsc1C2=O` [Example 56, 2-acetylthieno[2,3-f][1]benzofuran-4,8-dione], the IC50 in the assay with FaDu cells [1] is 0.56 µM; in the assay on HCT-116 cells [2], 0.06 µM; in the assay with HT-29 cells [3] it was 0.58 µM; in the assay with HCT-116 cells [4], 0.09 µM; in the assay with FaDu cells [5] it was 0.08 µM; in the assay on HT-29 cells [6], 0.62 µM.
Consider `O=C1c2cc(C(=O)N3CCOCC3)sc2C(=O)c2nccnc21` [Example 57, 7-(morpholin-4-ylcarbonyl)thieno[2,3-g]quinoxaline-5,9-dione], for which the concentration for half-maximal inhibition (IC50) with FaDu cells [1] is 8.21 µM; in the assay with HCT-116 cells [2] it was 4.97 µM; in the assay with HT-29 cells [3], above 10 µM; with HCT-116 cells [4], 5.71 µM; with FaDu cells [5], 5.65 µM; with HT-29 cells [6] it was above 10 µM.
Turning to `C[C@@H]1CN(C(=O)c2cc3c(s2)C(=O)c2nccnc2C3=O)C[C@H](C)O1` [Example 58, 7-{[(2R,6S)-2,6-dimethylmorpholin-4-yl]carbonyl}thieno[2,3-g]quinoxaline-5,9-dione], the IC50 with FaDu cells [1] was found to be 3.71 µM; with HCT-116 cells [2] it was 0.56 µM; in the assay with HT-29 cells [3], 5.97 µM; with HCT-116 cells [4], 0.64 µM; in the assay on FaDu cells [5] it was 0.76 µM; in the assay with HT-29 cells [6] it was 7.06 µM.
Regarding `O=C1c2cc(CN3CCOCC3)sc2C(=O)c2nccnc21` [Example 59, 7-(morpholin-4-ylmethyl)thieno[2,3-g]quinoxaline-5,9-dione], the IC50 in the assay on FaDu cells [1] was 0.36 µM; in the assay on HCT-116 cells [2], 0.05 µM; in the assay on HT-29 cells [3], 0.63 µM; in the assay on HCT-116 cells [4] it was 0.28 µM; in the assay with FaDu cells [5], 0.06 µM; with HT-29 cells [6] it was 0.84 µM.
Take `CCOC(=O)/C=C/c1cc2c(s1)C(=O)c1ccncc1C2=O` [Example 60, ethyl (E)-3-(4,9-dioxo-4,9-dihydrothieno[2,3-g]isoquinolin-2-yl)acrylate]: the half-inhibitory concentration (IC50) is 0.75 µM in the assay on FaDu cells [1]; 7.41 µM in the assay with HCT-116 cells [2]; 8.98 µM in the assay on HT-29 cells [3]; 2.71 µM with HCT-116 cells [4]; 0.83 µM in the assay on FaDu cells [5]; above 10 µM with HT-29 cells [6].
`C#Cc1cc2c(s1)C(=O)c1ccncc1C2=O` [Example 61, 2-ethynylthieno[2,3-g]isoquinoline-4,9-dione]: the IC50 in the assay on FaDu cells [1] was found to be 0.05 µM; in the assay with HCT-116 cells [2], 0.28 µM; with HT-29 cells [3], 0.24 µM; in the assay on HCT-116 cells [4], 0.19 µM; in the assay on FaDu cells [5], 0.05 µM; in the assay with HT-29 cells [6], 0.54 µM.
